Reference: US10364222B2, “Cyclic amine derivative and medical use thereof” (Toray Industries, Inc., priority 2016, dated 2019)

What was measured:
[1] = system: imiquimod-induced mouse psoriasis model; assay: Imiquimod-induced mouse psoriasis model; type: in vivo; conditions: BALB/c mice; 10 mg/kg orally once daily from 3 to 7 days after induction; vs vehicle, Student's t-test P<0.05
Procedure: Using increase in the ear thickness as an index of exacerbation of symptoms, the effect of the cyclic amine derivative (I) or a pharmacologically acceptable salt thereof in an imiquimod-induced mouse psoriasis model was evaluated. The imiquimod-induced mouse psoriasis model was prepared by a partially modified method by Schaper et al. (The Journal of Dermatological Science, 2013, Vol. 71, No. 1, p. 29-36).
BALB/c mice (male, 7 weeks old) (Charles River Laboratories Japan, Inc.) were used at 8 weeks old after preliminary breeding. To induce psoriasis-like symptoms, 5 mg each of BESELNA CREAM 5% was applied once daily to the outside of the right and left auricles of the mice for 8 days from the day of first administration of imiquimod (hereinafter referred to as induction day) to 7 days after induction (dose of imiquimod, 0.5 mg/body/day).
(§1) The test compound at a dose of 10 mg/kg was administered to the mice once daily for 5 days from 3 days after induction to 7 days after induction. As the test compound, the compound of Example 20, the compound of Example 29, and the compound of Example 57 were used. The compound of Example 20, the compound of Example 29, and the compound of Example 57 were suspended in a 0.5 w/v % methylcellulose solution and orally administered. The group in which the compound of Example 20 was administered to mice was defined as the Example-20 compound administration group, the group in which the compound of Example 29 was administered was defined as the Example-29 compound administration group, and the group in which the compound of Example 57 was administered was defined as the Example-57 compound administration group. In the vehicle administration group, a vehicle of each test compound (0.5 w/v % methylcellulose solution) was similarly administered.
The right and left ear thickness before administration of imiquimod (before induction) on the induction day and the right and left ear thickness on the 8th day after induction were measured with a digital micrometer (Mitutoyo Corporation). […]

[2] = system: oxazolone-induced mouse atopic dermatitis model; assay: Oxazolone-induced mouse atopic dermatitis model; type: in vivo; conditions: BALB/c mice; 10 mg/kg orally once daily for 15 days from the sensitization day; vs vehicle, Student's t-test P<0.05
Procedure: Using increase in the ear thickness as an index of exacerbation of symptoms, the effect of the cyclic amine derivative (I) or a pharmacologically acceptable salt thereof in an oxazolone-induced mouse atopic dermatitis model was evaluated. The oxazolone-induced mouse atopic dermatitis model was prepared by a partially modified method by Nakajima et al. (Journal of Investigative Dermatology, 2014, Vol. 134, p. 2122-2130).
BALB/c mice (female, 7 weeks old) (Charles River Laboratories Japan, Inc.) were used at 8 or 9 weeks old after preliminary breeding. To the back of the mice, 25 μL of a 3 w/v % oxazolone solution dissolved in ethanol was applied to sensitize the mice. Every other day from 5 days to 13 days after the sensitization, 10 μL each of a 0.6 w/v % oxazolone solution dissolved in ethanol was applied to both sides of the right auricle of the sensitized mice to induce inflammation.
as §1, with “for 15” for “for 5”, “from the sensitization day to 14” for “from 3”, “after sensitization.” for “after induction to 7 days after induction.”
The right ear thickness before application of the oxazolone solution (before sensitization) on the sensitization day and the right ear thickness on the next day of final induction were measured with a digital micrometer (Mitutoyo Corporation). […]

SMILES	change in the ear thickness (ear thickness on the 8th day after induction − before induction) [1]	change in the ear thickness (right ear, next day of final induction − before sensitization) [2]
CC(=O)N1CCCC[C@@H]1C(=O)Nc1ccc(-c2ccccc2OC(F)(F)F)c(Cl)c1 [Example 20, (R)-1-acetyl-N-(2-chloro-2′-(trifluoromethoxy)-[1,1′-biphenyl]-4-yl)piperidine-2-carboxamide]	statistically significantly suppressed	statistically significantly suppressed
CN(CC(=O)N1CCCC[C@@H]1C(=O)Nc1ccc(-c2ccccc2OC(F)(F)F)c(Cl)c1)S(C)(=O)=O [Example 29, (R)-N-(2-chloro-2′-(trifluoromethoxy)-[1,1′-biphenyl]-4-yl)-1-(2-(N-methylmethylsulfonamide)acetyl)piperidine-2-carboxamide]	statistically significantly suppressed	statistically significantly suppressed
O=C(Nc1ccc(-c2ccccc2OC(F)(F)F)c(Cl)c1)[C@H]1CCCCN1C(=O)Cn1cnnn1 [Example 57, (R)-1-(2-(1H-tetrazol-1-yl)acetyl)-N-(2-chloro-2′-(trifluoromethoxy)-[1,1′-biphenyl]-4-yl)piperidine-2-carboxamide]	statistically significantly suppressed	statistically significantly suppressed
